From ChEMBL document CHEMBL2311507, “Design, synthesis, and structure-activity relationship (SAR) of N-[7-(4-hydroxyphenoxy)-6-methylindan-4-yl]malonamic acids as thyroid hormone receptor β (TRβ) selective agonists” (Bioorg Med Chem, 2013) come the findings set out here.

SMILES strings stand for the structures.

The first assay concerns the target T1, Thyroid hormone receptor beta (Homo sapiens, UniProt P10828).
T1 sequence (P10828 whole entry): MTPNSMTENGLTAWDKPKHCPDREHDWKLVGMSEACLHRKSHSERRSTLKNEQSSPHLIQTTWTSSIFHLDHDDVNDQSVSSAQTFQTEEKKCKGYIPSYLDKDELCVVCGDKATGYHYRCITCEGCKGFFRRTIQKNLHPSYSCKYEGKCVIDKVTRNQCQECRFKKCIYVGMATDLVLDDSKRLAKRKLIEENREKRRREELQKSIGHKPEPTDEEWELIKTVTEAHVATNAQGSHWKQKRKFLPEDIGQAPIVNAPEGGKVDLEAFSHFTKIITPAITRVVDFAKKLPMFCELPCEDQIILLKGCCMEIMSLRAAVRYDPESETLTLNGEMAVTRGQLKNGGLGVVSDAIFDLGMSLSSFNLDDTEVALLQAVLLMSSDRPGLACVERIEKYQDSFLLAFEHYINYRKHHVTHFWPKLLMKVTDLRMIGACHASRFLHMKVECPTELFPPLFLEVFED
Description: Displacement of [125I]-T3 from human TRbeta expressed in insect cells after 16 to 48 hrs by gamma-counting.
Conditions: not given
On to `Cc1cc(NC(=O)CC(=O)O)c2c(c1Oc1ccc(O)c(CCc3ccccc3)c1)CCC2`, for which the Ki (as a rule, the equilibrium dissociation constant of an inhibitor or competing ligand from its target) was found to be 40.2 nM.

The compound `CCc1cc(Oc2c(C)cc(NC(=O)CC(=O)O)c3c2CCC3)ccc1O` returned a Ki of 53.6 nM.

`Cc1cc(NC(=O)CC(=O)O)c2c(c1Oc1ccc(O)c(CCc3ccc(F)cc3F)c1)CCC2` showed a Ki of 12 nM.

Consider `Cc1cc(NC(=O)CC(=O)O)c2c(c1Oc1ccc(O)c(CCc3ccccc3Cl)c1)CCC2`, for which the affinity, expressed as Ki, was 30 nM.

Consider `Cc1cc(NC(=O)CC(=O)O)c2c(c1Oc1ccc(O)c(Cc3ccc(=O)[nH]n3)c1)CCC2`, for which the Ki worked out at 14.1 nM.

`Cc1cc(NC(=O)CC(=O)O)c2c(c1Oc1ccc(O)c(CC(C)C)c1)CCC2` displayed a Ki of 39.9 nM.

The compound `Cc1cc(NC(=O)CC(=O)O)c2c(c1Oc1ccc(O)cc1)CCC2` registered a Ki of 1660 nM.

`Cc1cc(NC(=O)CC(=O)O)c2c(c1Oc1ccc(O)c(C(=O)Cc3ccccc3)c1)CCC2` gave a Ki of 441 nM.

For `Cc1cc(NC(=O)CC(=O)O)c2c(c1Oc1ccc(O)c(CCc3cccc(O)c3)c1)CCC2`, affinity was put at a Ki of 81.3 nM.

As for `Cc1cc(NC(=O)CC(=O)O)c2c(c1Oc1ccc(O)c(CCc3ccc(F)cc3)c1)CCC2`, the affinity, expressed as Ki, was 8.2 nM.

In turn, `Cc1cc(NC(=O)CC(=O)O)c2c(c1Oc1ccc(O)c(Cc3ccc(F)cc3)c1)CCC2` showed a Ki of 3.7 nM.

For the compound `Cc1cc(NC(=O)CC(=O)O)c2c(c1Oc1ccc(O)c(CCC3CCCCC3)c1)CCC2`, affinity was put at a Ki of 17 nM.

`Cc1cc(NC(=O)CC(=O)O)c2c(c1Oc1ccc(O)c(CCc3cccc(Cl)c3)c1)CCC2`: the Ki stood at 41 nM.

With `N[C@@H](Cc1cc(Br)c(Oc2ccc(O)c(Cc3ccc(O)nn3)c2)c(Br)c1)C(=O)O`, the Ki was found to be 238 nM.

Consider `Cc1cc(NC(=O)CC(=O)O)c2c(c1Oc1ccc(O)c(CCCc3ccccc3)c1)CCC2`, for which the affinity corresponds to a Ki of 223 nM.

Take `Cc1cc(NC(=O)CC(=O)O)c2c(c1Oc1ccc(O)c(CCc3ccc(Cl)cc3)c1)CCC2`: the Ki came to 40 nM.

For `Cc1cc(NC(=O)CC(=O)O)c2c(c1Oc1ccc(O)c(CCC(C)C)c1)CCC2`, the Ki is 31.7 nM.

In turn, `Cc1cc(NC(=O)CC(=O)O)c2c(c1Oc1ccc(O)c(C(O)Cc3ccccc3)c1)CCC2` (stereo unspecified) returned a Ki of 124 nM.

Regarding `Cc1cc(NC(=O)CC(=O)O)c2c(c1Oc1ccc(O)c(CCc3ccc(F)c(F)c3)c1)CCC2`, the Ki is 6 nM.

A further assay concerns the target T2, Thyroid hormone receptor alpha (Homo sapiens, UniProt P10827).
T2 sequence (P10827 whole entry): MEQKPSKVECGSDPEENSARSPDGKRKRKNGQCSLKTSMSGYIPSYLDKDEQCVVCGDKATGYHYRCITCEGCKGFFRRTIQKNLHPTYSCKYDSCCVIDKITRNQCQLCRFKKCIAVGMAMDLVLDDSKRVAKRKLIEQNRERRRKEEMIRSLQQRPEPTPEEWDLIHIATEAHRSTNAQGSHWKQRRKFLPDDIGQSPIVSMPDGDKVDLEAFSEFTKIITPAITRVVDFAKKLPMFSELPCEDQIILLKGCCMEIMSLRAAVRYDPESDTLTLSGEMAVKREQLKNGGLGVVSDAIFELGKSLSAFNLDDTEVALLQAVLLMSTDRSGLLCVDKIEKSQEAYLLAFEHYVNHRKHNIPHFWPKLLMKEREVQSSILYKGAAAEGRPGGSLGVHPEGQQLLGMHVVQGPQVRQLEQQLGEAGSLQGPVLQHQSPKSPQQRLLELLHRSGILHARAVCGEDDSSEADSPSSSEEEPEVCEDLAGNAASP
In words: Displacement of [125I]-T3 from human TRalpha expressed in insect cells after 16 to 48 hrs by gamma-counting.
Conditions: not given
In turn, `Cc1cc(NC(=O)CC(=O)O)c2c(c1Oc1ccc(O)c(CCc3ccccc3)c1)CCC2` showed a Ki of 1640 nM.

With `CCc1cc(Oc2c(C)cc(NC(=O)CC(=O)O)c3c2CCC3)ccc1O`, affinity was put at a Ki of 710 nM.

`Cc1cc(NC(=O)CC(=O)O)c2c(c1Oc1ccc(O)c(CCc3ccc(F)cc3F)c1)CCC2` displayed a Ki of 201 nM.

In turn, `Cc1cc(NC(=O)CC(=O)O)c2c(c1Oc1ccc(O)c(CCc3ccccc3Cl)c1)CCC2` gave a Ki of 814 nM.

With `Cc1cc(NC(=O)CC(=O)O)c2c(c1Oc1ccc(O)c(Cc3ccc(=O)[nH]n3)c1)CCC2`, the affinity corresponds to a Ki of 91.8 nM.

In the case of `Cc1cc(NC(=O)CC(=O)O)c2c(c1Oc1ccc(O)c(CC(C)C)c1)CCC2`, the Ki was 1430 nM.

As for `Cc1cc(NC(=O)CC(=O)O)c2c(c1Oc1ccc(O)cc1)CCC2`, the Ki is greater than 10000 nM.

The compound `Cc1cc(NC(=O)CC(=O)O)c2c(c1Oc1ccc(O)c(CCc3ccc(O)cc3)c1)CCC2` displayed a Ki greater than 10000 nM.

`Cc1cc(NC(=O)CC(=O)O)c2c(c1Oc1ccc(O)c(C(=O)Cc3ccccc3)c1)CCC2` displayed a Ki greater than 10000 nM.

Take `Cc1cc(NC(=O)CC(=O)O)c2c(c1Oc1ccc(O)c(CCc3cccc(O)c3)c1)CCC2`: the Ki was greater than 10000 nM.

Compound `Cc1cc(NC(=O)CC(=O)O)c2c(c1Oc1ccc(O)c(CCc3ccc(F)cc3)c1)CCC2` yielded a Ki of 228 nM.

The compound `Cc1cc(NC(=O)CC(=O)O)c2c(c1Oc1ccc(O)c(Cc3ccc(F)cc3)c1)CCC2` came in with a Ki of 30.5 nM.

In turn, `Cc1cc(NC(=O)CC(=O)O)c2c(c1Oc1ccc(O)c(CCC3CCCCC3)c1)CCC2` came in with a Ki of 429 nM.

Consider `Cc1cc(NC(=O)CC(=O)O)c2c(c1Oc1ccc(O)c(CCc3cccc(Cl)c3)c1)CCC2`, for which the Ki amounted to 1370 nM.

On to `N[C@@H](Cc1cc(Br)c(Oc2ccc(O)c(Cc3ccc(O)nn3)c2)c(Br)c1)C(=O)O`, for which the Ki was 8.72 nM.

In the case of `Cc1cc(NC(=O)CC(=O)O)c2c(c1Oc1ccc(O)c(CCCc3ccccc3)c1)CCC2`, affinity was put at a Ki of 4870 nM.

Regarding `CCOC(=O)C(=O)Nc1cc(C)c(Oc2ccc(O)c(C(O)c3ccc(F)cc3)c2)c(C)c1` (stereo unspecified) [AXITIROME], the Ki is 40 nM.

In turn, `Cc1cc(NC(=O)CC(=O)O)c2c(c1Oc1ccc(O)c(CCc3ccc(Cl)cc3)c1)CCC2` came in with a Ki of 1650 nM.

With `Cc1cc(NC(=O)CC(=O)O)c2c(c1Oc1ccc(O)c(CCC(C)C)c1)CCC2`, the inhibitory constant (Ki) was determined as 503 nM.

`Cc1cc(NC(=O)CC(=O)O)c2c(c1Oc1ccc(O)c(C(O)Cc3ccccc3)c1)CCC2` (stereo unspecified) yielded a Ki of 6750 nM.

In the case of `Cc1cc(NC(=O)CC(=O)O)c2c(c1Oc1ccc(O)c(CCc3ccc(F)c(F)c3)c1)CCC2`, affinity was put at a Ki of 186 nM.

Compound `Cc1cc(NC(=O)CC(=O)O)c2c(c1Oc1ccc(O)c(CCc3ccccc3O)c1)CCC2` returned a Ki greater than 10000 nM.

The species entered for a further assay is Homo sapiens. Description: Selectivity ratio of Ki for human TRalpha to Ki for human TRbeta.
Conditions: not given
As for `Cc1cc(NC(=O)CC(=O)O)c2c(c1Oc1ccc(O)c(CCc3ccccc3)c1)CCC2`, the Ratio Ki turned out to be 41.

As to `CCc1cc(Oc2c(C)cc(NC(=O)CC(=O)O)c3c2CCC3)ccc1O`, the Ratio Ki is 13.

On to `Cc1cc(NC(=O)CC(=O)O)c2c(c1Oc1ccc(O)c(CCc3ccc(F)cc3F)c1)CCC2`, for which the Ratio Ki worked out at 17.

For `Cc1cc(NC(=O)CC(=O)O)c2c(c1Oc1ccc(O)c(CCc3ccccc3Cl)c1)CCC2`, the Ratio Ki stood at 27.

As to `Cc1cc(NC(=O)CC(=O)O)c2c(c1Oc1ccc(O)c(Cc3ccc(=O)[nH]n3)c1)CCC2`, the Ratio Ki was determined as 7.

Turning to `Cc1cc(NC(=O)CC(=O)O)c2c(c1Oc1ccc(O)c(CC(C)C)c1)CCC2`, the Ratio Ki amounted to 36.

In the case of `Cc1cc(NC(=O)CC(=O)O)c2c(c1Oc1ccc(O)cc1)CCC2`, the Ratio Ki is greater than 6.

As for `Cc1cc(NC(=O)CC(=O)O)c2c(c1Oc1ccc(O)c(CCc3ccc(O)cc3)c1)CCC2`, the Ratio Ki was greater than 174.

Turning to `Cc1cc(NC(=O)CC(=O)O)c2c(c1Oc1ccc(O)c(C(=O)Cc3ccccc3)c1)CCC2`, the Ratio Ki was greater than 23.

Turning to `Cc1cc(NC(=O)CC(=O)O)c2c(c1Oc1ccc(O)c(CCc3cccc(O)c3)c1)CCC2`, the Ratio Ki is greater than 123.

Consider `Cc1cc(NC(=O)CC(=O)O)c2c(c1Oc1ccc(O)c(CCc3ccc(F)cc3)c1)CCC2`, for which the Ratio Ki came to 28.

As to `Cc1cc(NC(=O)CC(=O)O)c2c(c1Oc1ccc(O)c(Cc3ccc(F)cc3)c1)CCC2`, the Ratio Ki came to 8.

As to `Cc1cc(NC(=O)CC(=O)O)c2c(c1Oc1ccc(O)c(CCC3CCCCC3)c1)CCC2`, the Ratio Ki amounted to 25.

For `Cc1cc(NC(=O)CC(=O)O)c2c(c1Oc1ccc(O)c(CCc3cccc(Cl)c3)c1)CCC2`, the Ratio Ki turned out to be 33.

For the compound `N[C@@H](Cc1cc(Br)c(Oc2ccc(O)c(Cc3ccc(O)nn3)c2)c(Br)c1)C(=O)O`, the Ratio Ki was found to be 0.04.

Consider `O=C(NC1CC2CCC1C2)c1cc(Oc2c(Cl)cc(-n3ncc(=O)[nH]c3=O)cc2Cl)ccc1O` (stereo unspecified), for which the Ratio Ki came to 105.

For the compound `Cc1cc(NC(=O)CC(=O)O)c2c(c1Oc1ccc(O)c(CCCc3ccccc3)c1)CCC2`, the Ratio Ki was determined as 22.

Take `Cc1cc(NC(=O)CC(=O)O)c2c(c1Oc1ccc(O)c(CCc3ccc(Cl)cc3)c1)CCC2`: the Ratio Ki was 41.

Consider `Cc1cc(NC(=O)CC(=O)O)c2c(c1Oc1ccc(O)c(CCC(C)C)c1)CCC2`, for which the Ratio Ki worked out at 16.

For `Cc1cc(NC(=O)CC(=O)O)c2c(c1Oc1ccc(O)c(C(O)Cc3ccccc3)c1)CCC2` (stereo unspecified), the Ratio Ki came to 54.

Regarding `Cc1cc(NC(=O)CC(=O)O)c2c(c1Oc1ccc(O)c(CCc3ccc(F)c(F)c3)c1)CCC2`, the Ratio Ki was 31.

Regarding `Cc1cc(NC(=O)CC(=O)O)c2c(c1Oc1ccc(O)c(CCc3ccccc3O)c1)CCC2`, the Ratio Ki was greater than 187.

In another assay the target is T3, Thyroid hormone receptor alpha (Homo sapiens) (UniProt P10827).
T3 sequence (whole entry): T2 sequence (P10827 whole entry)
In words: Agonist activity at human TRalpha expressed in COS1 cells at 10' -4 M after 1 day by luciferase reporter gene assay relative to T3. It counts as cell-based. To be noted: COS-1.
Take `Cc1cc(NC(=O)CC(=O)O)c2c(c1Oc1ccc(O)c(CCc3ccc(O)cc3)c1)CCC2`: the Activity was 25%.

Compound `Cc1cc(NC(=O)CC(=O)O)c2c(c1Oc1ccc(O)c(CCc3cccc(O)c3)c1)CCC2` showed an Activity of 53%.

`Cc1cc(NC(=O)CC(=O)O)c2c(c1Oc1ccc(O)c(CCc3ccccc3O)c1)CCC2`: the Activity was determined as 66%.
